The text below walks through data of USRE46856E1, “Substituted 2,3-dihydroimidazo[1,2-c]quinazoline derivatives useful for treating hyper-proliferative disorders and diseases associated with angiogenesis” (Bayer Intellectual Property GmbH, priority 2006, dated 2018).

For assay [1], the target named is T1, PI3Kα (Homo sapiens, UniProt P42336).
T1 construct: His6 (N); made in house; host or cells: S. frugiperda 9 (Sf9) insect cells
Nature of the assay: Solid-phase lipid kinase assay of PI3Kα (p110α assay). The format is biochemical. The following applies: recombinant truncated human p110α, 10 μM ATP. From the text: [Determination of IC50 Values of Compounds in Kinase Assay of PI3Kα]
LABORATORIES (Toronto, Canada). […] [γ^33P]ATP and unlabeled ATP were purchased from […] […] BIOTECH (Buckinghamshire, UK) and ROCHE DIAGNOSTICS (Mannheim, Germany), respectively. Scintillation cocktails and MicroScint PS™ were purchased from PACKARD (Meriden, Conn.). Maxisorp™ plates were purchased from NALGE NUNC INTERNATIONAL K.K. (Tokyo, Japan). All other chemicals not further specified were from WAKO PURE CHEMICALS (Osaka, Japan).
The plates were subsequently air-dried by incubation for at least 2 hours in a fume hood. The reaction was set up by mixing 25 μL/well of assay buffer 2×(100 mM MOPSO/NaOH, 0.2 M NaCl, pH 7.0, 8 mM MgCl2, 2 mg/mL BSA (fatty acid-free)), and 7.5 ng/well PI3Kα in the lipid pre-coated plate. 100× test compounds were added in 2% DMSO. The reaction was started by adding 20 μL/well of ATP mix (final 10 μM ATP; 0.05 μCi/well [γ^33P]ATP). After incubation at RT for 2 hours, the reaction was terminated by adding 50 μl/well stop solution (50 mM EDTA, pH 8.0). The plate was then washed twice with Tris-buffered saline (TBS, pH 7.4). MicroScint PS™ (PACKARD) scintillation mix was added at 100 μL/well, and radioactivity was counted using a TopCount™ (PACKARD) scintillation counter.
The inhibition percent at each concentration of compound was calculated, and IC50 values were determined from the inhibition of curve.

For assay [2], the target named is T2, PI3Kβ (Homo sapiens, UniProt P42338).
T2 construct: His6 (N); made in house; host or cells: S. frugiperda 9 (Sf9) insect cells
In words: Isozyme selectivity test: kinase assay of PI3Kβ (p110β assay). The format is biochemical. To be noted: recombinant truncated p110β, 7.5 ng protein/well. The text has this:
[Isozyme Selectivity Test in PI3K]
Determination of IC50 Values of Compounds in Kinase Assays of PI3Kβ and PI3Kγ

For assay [3], the system named is IGF-1 induced AKT phosphorylation in A549 cells. In words: IGF-1 induced AKT phosphorylation assay (A549 cell assay). The following applies: Homo sapiens; A549 cells, 25 ng/ml IGF-1, phospho-AKT(Ser 473); read-out: average IC50 in the A549 cell assay. In kind it is cell-based. In short, it runs like this: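 A549 cells stimulated with 25 ng/ml IGF-1 for 10 min at 37 °C, then fixed in formaldehyde/methanol. Phospho-AKT detected by cell ELISA (primary anti-phospho-AKT, HRP secondary, ECL luminescence); IC50 from inhibition curve.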

Counter-ions that a name gives are not always drawn.

T2 sequence (P42338 109-1070): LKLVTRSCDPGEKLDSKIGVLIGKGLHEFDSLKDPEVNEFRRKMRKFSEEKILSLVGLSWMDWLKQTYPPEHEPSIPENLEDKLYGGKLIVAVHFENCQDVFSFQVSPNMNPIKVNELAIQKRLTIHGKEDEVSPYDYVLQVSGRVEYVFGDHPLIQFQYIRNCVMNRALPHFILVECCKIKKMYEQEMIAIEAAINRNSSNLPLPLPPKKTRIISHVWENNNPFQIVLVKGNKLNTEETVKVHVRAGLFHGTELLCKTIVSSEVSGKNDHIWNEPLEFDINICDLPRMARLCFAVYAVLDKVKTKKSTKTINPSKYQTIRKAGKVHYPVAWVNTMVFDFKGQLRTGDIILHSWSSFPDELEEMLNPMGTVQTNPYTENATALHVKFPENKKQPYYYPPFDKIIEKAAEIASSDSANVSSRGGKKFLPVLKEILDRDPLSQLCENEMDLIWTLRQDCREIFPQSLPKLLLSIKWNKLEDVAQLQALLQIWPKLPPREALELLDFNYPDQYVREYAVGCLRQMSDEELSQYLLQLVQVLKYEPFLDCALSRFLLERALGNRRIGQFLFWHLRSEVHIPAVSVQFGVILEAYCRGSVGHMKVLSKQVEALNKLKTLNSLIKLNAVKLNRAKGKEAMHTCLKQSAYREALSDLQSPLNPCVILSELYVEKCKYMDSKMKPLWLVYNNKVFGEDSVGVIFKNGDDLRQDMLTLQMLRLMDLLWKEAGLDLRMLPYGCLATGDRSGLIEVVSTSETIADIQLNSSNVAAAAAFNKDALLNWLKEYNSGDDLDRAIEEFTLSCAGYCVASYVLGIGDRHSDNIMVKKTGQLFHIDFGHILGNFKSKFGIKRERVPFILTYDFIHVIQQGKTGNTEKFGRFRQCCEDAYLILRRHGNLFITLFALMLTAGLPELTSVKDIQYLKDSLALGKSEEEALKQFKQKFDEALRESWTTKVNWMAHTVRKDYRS
T1 sequence (P42336 109-1068): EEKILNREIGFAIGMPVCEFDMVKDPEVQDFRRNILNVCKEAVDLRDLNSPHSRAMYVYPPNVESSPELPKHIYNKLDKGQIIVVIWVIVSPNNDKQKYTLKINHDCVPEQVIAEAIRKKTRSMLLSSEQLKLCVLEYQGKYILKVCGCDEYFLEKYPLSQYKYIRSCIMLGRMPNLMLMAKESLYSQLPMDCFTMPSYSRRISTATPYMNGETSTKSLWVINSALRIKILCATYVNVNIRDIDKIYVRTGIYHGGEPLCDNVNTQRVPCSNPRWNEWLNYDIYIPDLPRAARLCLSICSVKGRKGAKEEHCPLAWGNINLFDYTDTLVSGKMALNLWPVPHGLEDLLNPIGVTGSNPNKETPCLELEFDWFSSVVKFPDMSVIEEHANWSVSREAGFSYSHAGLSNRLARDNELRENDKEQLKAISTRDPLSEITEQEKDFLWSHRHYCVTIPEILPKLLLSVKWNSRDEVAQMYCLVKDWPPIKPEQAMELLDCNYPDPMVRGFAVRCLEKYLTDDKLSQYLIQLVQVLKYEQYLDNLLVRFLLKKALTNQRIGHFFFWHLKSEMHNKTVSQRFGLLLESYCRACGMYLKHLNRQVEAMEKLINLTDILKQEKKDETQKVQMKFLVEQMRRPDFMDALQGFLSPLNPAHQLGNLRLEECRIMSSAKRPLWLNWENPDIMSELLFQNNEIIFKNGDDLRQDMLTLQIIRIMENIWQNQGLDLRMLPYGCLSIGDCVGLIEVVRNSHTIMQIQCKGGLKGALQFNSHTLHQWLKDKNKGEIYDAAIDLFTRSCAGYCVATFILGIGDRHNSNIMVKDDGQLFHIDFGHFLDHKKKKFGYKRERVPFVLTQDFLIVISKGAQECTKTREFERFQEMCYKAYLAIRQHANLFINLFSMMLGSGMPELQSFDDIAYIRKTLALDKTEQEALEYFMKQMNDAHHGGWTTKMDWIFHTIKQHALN

Take `COc1c(OCCCN2C[C@@H](C)O[C@@H](C)C2)ccc2c1N=C(NC(=O)c1ccc(N)nc1)N1CCN=C21` [Example 39, rel-6-amino-N-(8-{3-[(2R,6S)-2,6-dimethylmorpholin-4-yl]propoxy}-7-methoxy-2,3-dihydroimidazo[1,2-c]quinazolin-5-yl)nicotinamide]: the IC50 (commonly the midpoint of a concentration-inhibition curve) in assay [1] is under 10 nM; in assay [2], under 10 nM; in assay [3], under 100 nM.
In the case of `COc1c(OCCCN2C[C@@H](C)O[C@@H](C)C2)ccc2c1N=C(NC(=O)c1cnc(N)nc1)N1CCN=C21` [Example 38, rel-2-amino-N-(8-{3-[(2R,6S)-2,6-dimethylmorpholin-4-yl]propoxy}-7-methoxy-2,3-dihydroimidazo[1,2-c]quinazolin-5-yl)pyrimidine-5-carboxamide], the IC50 was under 10 nM in assay [1], under 10 nM in assay [2] and under 100 nM in assay [3].
Regarding `COc1c(OCCCN2CCOCC2)ccc2c1N=C(NC(=O)c1ccc(C(F)(F)F)nc1)N1CCN=C21` [Example 62, N-[7-methoxy-8-(3-morpholin-4-ylpropoxy)-2,3-dihydroimidazo[1,2-c]quinazolin-5-yl]-6-(trifluoromethyl)nicotinamide], the IC50 in assay [1] lay in the range of 10 to 100 nM; in assay [2], 10 to 100 nM; in assay [3], 100 to 1000 nM.
Regarding `COc1c(OCCCN2C[C@@H](C)O[C@@H](C)C2)ccc2c1N=C(NC(=O)c1ccc(NC(C)=O)nc1)N1CCN=C21` [Example 29, rel-6-acetamido-N-(8-{3-[(2R,6S)-2,6-dimethylmorpholin-4-yl]propoxy}-7-methoxy-2,3-dihydroimidazo[1,2-c]quinazolin-5-yl)nicotinamide], the IC50 in assay [1] is under 10 nM; in assay [2], under 10 nM; in assay [3], under 100 nM.
Regarding `COc1c(OCCCN2CCOCC2)ccc2c1N=C(NC(=O)c1cccs1)N1CCN=C21` [Example 93, N-[7-methoxy-8-(3-morpholin-4-ylpropoxy)-2,3-dihydroimidazo[1,2-c]quinazolin-5-yl]thiophene-2-carboxamide], the IC50 in assay [1] lay in the range of 10 to 100 nM; in assay [2], 10 to 100 nM; in assay [3], 100 to 1000 nM.
With `COc1c(OCCCN2CCOCC2)ccc2c1N=C(NC(=O)c1ccc(OCC(F)(F)F)nc1)N1CCN=C21` [Example 61, N-[7-methoxy-8-(3-morpholin-4-ylpropoxy)-2,3-dihydroimidazo[1,2-c]quinazolin-5-yl]-6-(2,2,2-trifluoroethoxy)nicotinamide], the 50% inhibitory concentration (IC50) was 10 to 100 nM in assay [1], 10 to 100 nM in assay [2] and 100 to 1000 nM in assay [3].
Turning to `COc1c(OCCCN2CCOCC2)ccc2c1N=C(NC(=O)c1ccc(NCc3ccc(F)cc3)nc1)N1CCN=C21` [Example 53, 6-[(4-fluorobenzyl)amino]-N-[7-methoxy-8-(3-morpholin-4-ylpropoxy)-2,3-dihydroimidazo[1,2-c]quinazolin-5-yl]nicotinamide], the IC50 in assay [1] is 10 to 100 nM; in assay [2] it was 10 to 100 nM; in assay [3], over 1000 nM.
Take `COc1c(OCCCN2CCOCC2)ccc2c1N=C(NC(=O)c1ccc(N3CCNCC3)nc1)N1CCN=C21` [Example 50, N-[7-methoxy-8-(3-morpholin-4-ylpropoxy)-2,3-dihydroimidazo[1,2-c]quinazolin-5-yl]-6-piperazin-1-ylnicotinamide hydrochloride]: the IC50 in assay [1] is 10 to 100 nM; in assay [2], 10 to 100 nM; in assay [3], over 1000 nM.
With `COc1c(OCCC2CN(CC3CCC3)CCO2)ccc2c1N=C(NC(=O)c1cccnc1)N1CCN=C21` (stereo not drawn) [Example 19, N-(8-{2-[4-(cyclobutylmethyl)morpholin-2-yl]ethoxy}-7-methoxy-2,3-dihydroimidazo[1,2-c]quinazolin-5-yl)nicotinamide], the values for the concentration for half-maximal inhibition (IC50) in assay [1], in assay [2] and in assay [3] were under 10 nM, under 10 nM and under 100 nM, respectively.
As for `COc1c(OCCCN2CCOCC2)ccc2c1N=C(NC(=O)c1ccc(CCN3CCCC3)nc1)N1CCN=C21` [Example 14, N-[7-methoxy-8-(3-morpholin-4-ylpropoxy)-2,3-dihydroimidazo[1,2-c]quinazolin-5-yl]-6-(2-pyrrolidin-1-ylethyl)nicotinamide], the values for the IC50 in assay [1], in assay [2] and in assay [3] were 10 to 100 nM, 10 to 100 nM and over 1000 nM, respectively.
On to `COc1c(OCCCN2CCOCC2)ccc2c1N=C(NC(=O)c1ccc(-n3cccc3)nc1)N1CCN=C21` [Example 56, N-[7-methoxy-8-(3-morpholin-4-ylpropoxy)-2,3-dihydroimidazo[1,2-c]quinazolin-5-yl]-6-(1H-pyrrol-1-yl)nicotinamide], for which the IC50 is 10 to 100 nM in assay [1], 10 to 100 nM in assay [2] and over 1000 nM in assay [3].
In the case of `COc1c(OCCCN2CCOCC2)ccc2c1N=C(NC(=O)c1ccncn1)N1CCN=C21` [Example 24, N-[7-methoxy-8-(3-morpholin-4-ylpropoxy)-2,3-dihydroimidazo[1,2-c]quinazolin-5-yl]pyrimidine-4-carboxamide], the figures for the IC50 in assay [1], in assay [2] and in assay [3] were over 100 nM, over 100 nM and over 1000 nM, respectively.
Regarding `COc1c(OCCCN2CCOCC2)ccc2c1N=C(NC(=O)c1ccnc(N)n1)N1CCN=C21` [Example 25, 2-amino-N-[7-methoxy-8-(3-morpholin-4-ylpropoxy)-2,3-dihydroimidazo[1,2-c]quinazolin-5-yl]pyrimidine-4-carboxamide], the 50% inhibitory concentration (IC50) in assay [1] was 10 to 100 nM; in assay [2], 10 to 100 nM; in assay [3], over 1000 nM.
On to `COc1c(OCCCN(C)C)ccc2c1N=C(NC(=O)c1ccc[n+]([O-])c1)N1CCN=C21` [Example 12, N-{8-[3-(dimethylamino)propoxy]-7-methoxy-2,3-dihydroimidazo[1,2-c]quinazolin-5-yl}nicotinamide 1-oxide], for which the results for the concentration for half-maximal inhibition (IC50) in assay [1], in assay [2] and in assay [3] were over 100 nM, over 100 nM and over 1000 nM, respectively.
As for `COc1c(OCCCN2CCOCC2)ccc2c1N=C(NC(=O)c1ccc(NC3CCCC3)nc1)N1CCN=C21` [Example 15, 6-(cyclopentylamino)-N-[7-methoxy-8-(3-morpholin-4-ylpropoxy)-2,3-dihydroimidazo[1,2-c]quinazolin-5-yl]nicotinamide], the IC50 in assay [1] is 10 to 100 nM; in assay [2], 10 to 100 nM; in assay [3] it was over 1000 nM.
With `COc1c(OCCCN2C[C@@H](C)O[C@@H](C)C2)ccc2c1N=C(NC(=O)c1ccc(C)nc1)N1CCN=C21` [Example 28, rel-N-(8-{3-[(2R,6S)-2,6-dimethylmorpholin-4-yl]propoxy}-7-methoxy-2,3-dihydroimidazo[1,2-c]quinazolin-5-yl)-6-methylnicotinamide], the values for the IC50 in assay [1], in assay [2] and in assay [3] were under 10 nM, under 10 nM and under 100 nM, respectively.
As for `COc1c(OCCCN2CCOCC2)ccc2c1N=C(NC(=O)c1cnc(NCCCN3CCOCC3)nc1)N1CCN=C21` [Example 43, N-[7-methoxy-8-(3-morpholin-4-ylpropoxy)-2,3-dihydroimidazo[1,2-c]quinazolin-5-yl]-2-[(3-morpholin-4-ylpropyl)amino]pyrimidine-5-carboxamide], the IC50 was 10 to 100 nM in assay [1], 10 to 100 nM in assay [2] and over 1000 nM in assay [3].
With `CCN1CCOC(COc2ccc3c(c2OC)N=C(NC(=O)c2cccnc2)N2CCN=C32)C1` (stereo not drawn) [Example 21, N-{8-[(4-ethylmorpholin-2-yl)methoxy]-7-methoxy-2,3-dihydroimidazo[1,2-c]quinazolin-5-yl}nicotinamide], the IC50 in assay [1] was 10 to 100 nM; in assay [2], 10 to 100 nM; in assay [3] it was under 100 nM.
Turning to `COc1c(OCCCN2C[C@@H](C)O[C@@H](C)C2)ccc2c1N=C(NC(=O)c1cncnc1)N1CCN=C21` [Example 27, rel-N-(8-{3-[(2R,6S)-2,6-dimethylmorpholin-4-yl]propoxy}-7-methoxy-2,3-dihydroimidazo[1,2-c]quinazolin-5-yl)pyrimidine-5-carboxamide], the IC50 is under 10 nM in assay [1], under 10 nM in assay [2] and under 100 nM in assay [3].
For `COc1c(OCCCN2CCOCC2)ccc2c1N=C(NC(=O)c1cnc(N3CCCC3)nc1)N1CCN=C21` [Example 47, N-[7-methoxy-8-(3-morpholin-4-ylpropoxy)-2,3-dihydroimidazo[1,2-c]quinazolin-5-yl]-2-pyrrolidin-1-ylpyrimidine-5-carboxamide], the IC50 in assay [1] is 10 to 100 nM; in assay [2] it was 10 to 100 nM; in assay [3] it was under 100 nM.
